The conditions of data set [1]: cited from earlier work.
A short description of data set [2]: Pharmacoscintigraphy regional absorption biostudy with Enterion site-specific delivery capsule, topiramate plasma concentrations. Type of data set: in vivo, human. Conditions: for Relative Bioavailability (%) Based on AUCinf: 200 mg topiramate API, Enterion capsule, healthy volunteers; for Relative Bioavailability (%) Based on AUCinf / Relative Bioavailability (%) Based on AUClast: vs Trt A; for Lambda / tmax / Relative Bioavailability (%) Based on AUClast / AUCinf / Cmax / half-life / AUC(0-inf) / AUC(0-t): 200 mg; for half-life: read-out: t½ (converted). On the procedure: A rational approach to obtain detailed information about how well topiramate is absorbed from the key residence areas of the gastrointestinal tract was conducted using the Enterion® site-specific delivery capsule, which is the subject of U.S. Pat. No. 6,632,216 which is incorporated herein by reference. The Enterion® site-specific delivery capsule is an easy to use non-invasive methodology for assessing regional drug absorption from the gastrointestinal tract. The capsule is 35mm in length and 10-12 mm in diameter and is capable of delivering solutions, suspensions or powders to specific sites. […] The capsules contain a drug chamber with a wide port, and therefore loading of all types of drug formulations into the capsule is relatively straightforward. Capsule activation is confirmed by means of a signal, which is emitted from the capsule when activation occurs and is relayed back to the activation unit.
A pharmacoscintigraphy study of topiramate was conducted at Pharmaceutical Profiles, Nottingham, UK utilizing their Enterion® site-specific delivery capsule technology. This study was designed to obtain detailed information about how well topiramate is absorbed from the key residence areas of the gastrointestinal tract. The examples below are a result of a biostudy that was a randomized, 4-treatment, 4-period study, conducted in 12 healthy volunteers. The test treatments administered using an Enterion® capsule and were as follows: Trt B represents 200 mg topiramate API delivered to the proximal small bowel (PSB), Trt C represents 200 mg topiramate API delivered to the distal small bowel (DSB), Trt D represents 200 mg topiramate API delivered to the colon. The reference treatment administered was Trt A which represents 200 mg topiramate as the commercial immediate release reference formulation, Topamax™. Topiramate plasma concentrations were measured in this study.
Analysis of plasma samples for topiramate was carried out in accordance with Bioanalytical Services Test Method number TM154. The method involves solid phase extraction of topiramate using Oasis HLB extraction cartridges. Topiramate is analysed using LC-MS/MS.
The standard curves for the analytical runs in the study covered the concentration range of 10-1000 ng/mL with a limit of quantitation of 10 ng/mL. All samples were diluted 1:10 prior to analysis.
The following parameters were derived from the plasma concentration data: individual and mean blood drug concentration levels, individual and mean peak levels, Cmax; individual and mean AUClast and AUCinf; individual and mean time to peak concentration, tmax, relative bioavailability of test compared to alternative formulation, Frel (%).

The conditions of data set [3]: cited from earlier work. This is another data set of the same source.
Where [4] appears, read: Trt B, proximal small bowel (PSB).
Setting [5] is: Trt B, proximal small bowel (PSB), plasma.
[6] abbreviates: Trt C, distal small bowel (DSB).
[7] abbreviates: human, plasma, Trt B, proximal small bowel (PSB).
Where [8] appears, read: human, plasma, Trt C, distal small bowel (DSB).
Setting [9] is: human, plasma, other: Enterion capsule, delivered to the colon, Trt D, colon, plasma.

The source of these data is patent publication US20060121112A1, “Topiramate pharmaceutical composition” (Elan Corporation, plc, priority 2004, published 2006).

Structures can show the parent of a compound that is named as a salt. Where two headings read alike, the source gives them in different places. Marks after values point to notes of the source that are not given here.

For orientation: Cmax means the maximum level reached in the sampled fluid or tissue. Usually AUC(0-inf) stands for total exposure, with the tail of the curve extrapolated. One may read the AUC(0-t) as the area under the concentration-time curve up to a stated or last time point. As usually defined, the bioavailability is dose-corrected exposure relative to a reference, in per cent.

`CC(C)(N)Cc1ccccc1` [Phentermine hydrochloride, 1,1 -Dimethyl-2-phenethylamine hydrochloride]: the solubility entry in data set [1] (in chloroform) is reported as “slightly soluble”; in data set [1] (in ether), “insoluble”; in data set [1] (in water and lower alcohols) it was “soluble”.

In the case of `CC1(C)O[C@@H]2[C@@H](CO[C@@]3(COS(N)(=O)=O)OC(C)(C)O[C@@H]23)O1` [Topiramate, topiramate], the “Relative Bioavailability (%) Based on AUCinf” value is reported as 120.88 ± 20.20 % in data set [2] (setting [4]); 120.99 ± 25.31$ % in data set [2] (setting [6]); 111.85 ± 19.41^ % in data set [2] (Trt D, colon). The Lambda in data set [2] (setting [4]) is 0.02 ± 0.01˜ h^−1; in data set [2] (setting [6]) it was 0.03 ± 0.01 h⁻¹; in data set [2] (Trt D, colon), 0.03 ± 0.01* h^−1. The tmax in data set [2] (setting [4]) was 2.08 ± 1.08 h; in data set [2] (setting [6]) it was 3.64 ± 4.20 h; in data set [2] (Trt D, colon), 11.85 ± 7.44 h; in data set [2] (human, plasma, Trt B, proximal small bowel (PSB), read-out: tmax), 2.1 ± 1.1 h; in data set [2] (human, plasma, Trt C, distal small bowel (DSB), read-out: tmax), 3.6 ± 4.2 h; in data set [2] (human, plasma, other: Enterion capsule, delivered to the colon, Trt D, colon, read-out: tmax), 11.8 ± 7.4 h. The “Relative Bioavailability (%) Based on AUClast” value is reported as 113.06 ± 19.46 % in data set [2] (setting [4]); 125.69 ± 27.18˜ % in data set [2] (setting [6]); 107.14 ± 22.73˜ % in data set [2] (Trt D, colon). Further, the AUCinf is 192140.44 ± 33798.87˜ ng/mL · h in data set [2] (setting [5]); 193203.21 ± 57012.26 ng·h/mL in data set [2] (Trt C, distal small bowel (DSB), plasma); 181462.53 ± 46104.28 ng·h/mL in data set [2] (Trt D, colon, plasma). Also, the Cmax worked out at 5255.66 ± 1870.32 ng/mL in data set [2] (setting [5]); 3878.07 ± 1267.71 ng/mL in data set [2] (Trt D, colon, plasma); 5260 ± 1870 ng/mL in data set [2] (human, plasma, Trt B, proximal small bowel (PSB), plasma, read-out: Cmax); 4970 ± 1200 ng/mL in data set [2] (human, plasma, Trt C, distal small bowel (DSB), plasma, read-out: Cmax); 3880 ± 1270 ng/mL in data set [2] (human, plasma, other: Enterion capsule, delivered to the colon, Trt D, colon, plasma, read-out: Cmax). Further, the enhanced bioavailability entry in data set [2] (administered in the small or large intestine as compared to oral immediate release tablets) is listed as “approximately 20%”. In addition, the half-life in data set [2] (setting [7]) is 32.7 ± 9.7 h; in data set [2] (setting [8]), 24.5 ± 6.18 h; in data set [2] (human, plasma, other: Enterion capsule, delivered to the colon, Trt D, colon), 24.9 ± 5.2 h. For the same molecule, the AUC(0-inf) in data set [2] (setting [7]) was determined as 192 ± 33.8 µg·h/mL; in data set [2] (setting [8]), 193 ± 57 µg·h/mL; in data set [2] (setting [9]) it was 181 ± 46.1 µg·h/mL. Besides, the AUC(0-t) turned out to be 150 ± 37.9 µg·h/mL in data set [2] (setting [7]), 160 ± 38.5 µg·h/mL in data set [2] (setting [8]) and 140 ± 40.7 µg·h/mL in data set [2] (setting [9]). Further, the “metabolized in the liver” value in data set [3] (P-450 microsomal enzyme system) is reported as 15%. In addition, the “time to peak blood levels” value in data set [3] (following a 400 mg oral dose) is on record as “about 2 hours”. The Plasma protein binding entry in data set [3] (in vivo) is recorded as “approximately 15%”. The “excreted unchanged in the urine” value in data set [3] (in vivo) is on record as “about 85%”. Moreover, the bioavailability in data set [3] (oral administration) is reported as around 100%.
